Test results taken from patent publication US20230093766A1, “COMPOSITIONS AND METHODS FOR COATING BONE GRAFTS” (BOARD OF REGENTS OF THE UNIVERSITY OF NEBRASKA, priority 2020, published 2023).

How the values were obtained:
[1] = system: TGF-β-dependent epithelial-mesenchymal transition (EMT); settings: cited from earlier work
Tgfbrl/ALK5 kinase = molecular target: T1, Tgfbrl/ALK5 kinase (Homo sapiens, UniProt P36897); settings: cited from earlier work
T1 sequence (P36897 34-503): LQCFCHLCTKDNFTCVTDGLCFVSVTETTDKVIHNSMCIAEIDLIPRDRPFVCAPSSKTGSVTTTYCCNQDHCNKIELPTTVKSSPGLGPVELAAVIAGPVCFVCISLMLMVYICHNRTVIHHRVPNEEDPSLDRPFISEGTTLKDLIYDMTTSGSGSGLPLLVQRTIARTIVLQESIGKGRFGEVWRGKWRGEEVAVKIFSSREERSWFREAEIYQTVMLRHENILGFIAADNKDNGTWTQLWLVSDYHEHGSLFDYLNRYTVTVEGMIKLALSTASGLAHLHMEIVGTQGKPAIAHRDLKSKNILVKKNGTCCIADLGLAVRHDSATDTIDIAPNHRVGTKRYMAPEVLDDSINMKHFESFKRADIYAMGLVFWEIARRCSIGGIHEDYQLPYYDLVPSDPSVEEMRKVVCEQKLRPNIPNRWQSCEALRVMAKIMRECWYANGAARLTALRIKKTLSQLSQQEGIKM

BMP type I receptor ALK2 = molecular target: T2, BMP type I receptor ALK2 (Homo sapiens, UniProt Q04771); settings: cited from earlier work
T2 sequence (Q04771 21-509): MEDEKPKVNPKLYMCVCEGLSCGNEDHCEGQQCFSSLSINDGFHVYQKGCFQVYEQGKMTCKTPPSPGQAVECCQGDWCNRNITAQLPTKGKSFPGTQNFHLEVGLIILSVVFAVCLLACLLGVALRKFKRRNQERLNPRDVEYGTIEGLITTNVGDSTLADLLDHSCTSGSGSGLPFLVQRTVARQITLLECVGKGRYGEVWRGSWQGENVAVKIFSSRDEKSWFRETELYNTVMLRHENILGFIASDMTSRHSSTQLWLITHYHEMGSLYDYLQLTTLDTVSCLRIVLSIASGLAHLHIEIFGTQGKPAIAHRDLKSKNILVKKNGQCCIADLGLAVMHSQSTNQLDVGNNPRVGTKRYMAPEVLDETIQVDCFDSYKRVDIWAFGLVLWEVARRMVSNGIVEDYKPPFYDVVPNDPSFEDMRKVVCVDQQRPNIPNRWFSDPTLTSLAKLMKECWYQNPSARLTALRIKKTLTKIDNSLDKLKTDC

BMP type I receptor ALK3 = BMP type I receptor ALK3 (Homo sapiens, UniProt P36894); settings: cited from earlier work
Sequence of BMP type I receptor ALK3 (P36894 24-532): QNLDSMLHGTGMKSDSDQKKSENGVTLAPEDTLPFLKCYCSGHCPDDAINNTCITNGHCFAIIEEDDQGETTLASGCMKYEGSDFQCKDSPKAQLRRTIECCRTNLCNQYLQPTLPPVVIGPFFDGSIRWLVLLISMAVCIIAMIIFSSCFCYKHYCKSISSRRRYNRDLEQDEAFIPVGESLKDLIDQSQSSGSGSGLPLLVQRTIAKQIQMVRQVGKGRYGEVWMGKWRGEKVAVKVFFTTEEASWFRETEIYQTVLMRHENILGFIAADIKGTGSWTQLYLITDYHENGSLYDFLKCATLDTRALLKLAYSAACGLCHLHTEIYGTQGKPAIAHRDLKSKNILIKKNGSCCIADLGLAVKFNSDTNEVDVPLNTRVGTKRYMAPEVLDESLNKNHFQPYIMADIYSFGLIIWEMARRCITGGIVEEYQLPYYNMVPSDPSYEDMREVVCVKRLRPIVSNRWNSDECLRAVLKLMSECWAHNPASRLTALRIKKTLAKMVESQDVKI

BMP type I receptor ALK6 = BMP type I receptor ALK6 (Homo sapiens, UniProt O00238); settings: cited from earlier work
Sequence of BMP type I receptor ALK6 (O00238 14-502): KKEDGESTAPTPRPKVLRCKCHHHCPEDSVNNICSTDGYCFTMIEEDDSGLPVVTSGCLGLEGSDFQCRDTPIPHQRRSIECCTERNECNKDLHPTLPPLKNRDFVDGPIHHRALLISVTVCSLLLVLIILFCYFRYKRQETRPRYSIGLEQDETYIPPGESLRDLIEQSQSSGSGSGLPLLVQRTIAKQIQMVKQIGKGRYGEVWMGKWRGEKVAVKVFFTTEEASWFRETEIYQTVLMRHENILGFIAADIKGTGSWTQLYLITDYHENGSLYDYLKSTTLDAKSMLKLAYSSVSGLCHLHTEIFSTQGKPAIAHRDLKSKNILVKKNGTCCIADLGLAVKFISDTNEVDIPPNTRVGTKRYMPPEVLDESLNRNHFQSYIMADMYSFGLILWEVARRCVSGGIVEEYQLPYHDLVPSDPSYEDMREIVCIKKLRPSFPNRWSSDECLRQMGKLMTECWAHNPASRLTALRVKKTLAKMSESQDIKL

[2] = system: periosteal progenitor cells isolated from autograft periosteum; assay: Osteogenic differentiation of periosteal progenitor cells, BMP-2 in combination with TGF-β inhibitor; type: cell-based
Protocol: To test the potential reciprocal regulation of both BMP and TGF-β signaling in repair, periosteal progenitor cells were isolated from autograft periosteum (Wang, et al. (2010) Am. J. Pathol., 177:3100-3111; Huang, et al. (2014) Mol. Ther., 22:430-439; Huang, et al. (2014) PLoS One, 9:e100079). The osteogenic differentiation of BMP-2 ([…]) in combination with TGF-β inhibitors was examined. Corilagin (1 μm) potentiated the effects of BMP-2 on osteoblastic differentiation as evidenced by increased alkaline phosphatase (ALP) staining and enhanced expression of ALP and osterix (Osx) in 10-day cultures (FIG. 7).

normal cells and tissues = settings: cited from earlier work
fibrosis in lung = settings: mouse model; cited from earlier work
[3] = BMP-2 peptide loading and in vitro release from electrospray-coated bone allografts; type: physicochemical; settings: from PLGA 50:50 coated allograft, during the first 4 weeks
Protocol: For quantification of peptide loading and release kinetics, 5 mg FITC labeled BMP-2 peptide was dispersed in 5% (w/v) of PLGA in DCM in glass vials and used for electrospray-mediated allograft coating. The amount of BMP-2 peptide loaded per graft was calculated from the difference in the weights of the bone samples before and after electrospray coating as well as accounting for the polymer:peptide ratio of 50:1 (Boda, et al. (2019) Acta Biomater., 85:282-93). The duration of the electrospray coating was adjusted to achieve an increase of 2-3 mg in the weights of the electrospray coated bone samples as compared to the corresponding uncoated ones. The FITC-labeled peptide release from the bone allograft was recorded by measuring the fluorescence intensities of the buffer aliquots at regular intervals using excitation and emission filters of 485 and 528 nm, respectively.
Similarly, to measure the peptide loading and release kinetics from PCL-gelatin coated allografts, the PCL-gelatin HFIP solution containing 5 mg FITC labeled BMP-2 peptide was used for coating. PCL-Gelatin (2.5 wt % each) and 5 mg of BMP-2 peptide were mixed by ultrasonication. […] The peptide release from the PCL-gelatin bone allograft was recorded by measuring the fluorescence intensities of the buffer aliquots at regular intervals (Boda, et al. (2019) Acta Biomater., 85:282-93). […]

receptors of BMPs = settings: cited from earlier work
[4] = Corilagin (1 μm) with BMP-2 (50 μg/ml), 10-day cultures

Compound	TGF-β-dependent epithelial-mesenchymal transition (EMT) [1]	Tgfbrl/ALK5 kinase activity (Tgfbrl/ALK5 kinase)	inhibition of BMP type I receptor ALK2 (BMP type I receptor ALK2)	inhibition of BMP type I receptor ALK3 (BMP type I receptor ALK3)	inhibition of BMP type I receptor ALK6 (BMP type I receptor ALK6)	alkaline phosphatase (ALP) staining [2, 4]	effects of BMP-2 on osteoblastic differentiation [2, 4]	expression of ALP [2, 4]	expression of osterix (Osx) [2, 4]	synergism with BMP-2 ([2]; FIG. 7, ALP and Osx expression after 10 days)	toxicity toward normal cells and tissues (normal cells and tissues)	fibrosis in lung (fibrosis in lung)	loaded peptide released [3]	binding and activation of the receptors of BMPs (receptors of BMPs)
O=C(O[C@@H]1O[C@@H]2COC(=O)c3cc(O)c(O)c(O)c3-c3c(cc(O)c(O)c3O)C(=O)O[C@H]([C@H]1O)[C@@H]2O)c1cc(O)c(O)c(O)c1 [Corilagin]	inhibits	strongly inhibits	without inhibiting	without inhibiting	without inhibiting	increased	potentiated	enhanced	enhanced	strong synergism	low level	attenuates		
KIPKASSVPTELSAISTLYL (BMP-2 peptide) [short-chain BMP-2 mimetic peptide (Genscript)]													Nearly all	binds and activates
